Biological target: T1, recombinant P. falciparum DHODH (Plasmodium falciparum, UniProt Q08210)
T1 sequence (Q08210 24-569): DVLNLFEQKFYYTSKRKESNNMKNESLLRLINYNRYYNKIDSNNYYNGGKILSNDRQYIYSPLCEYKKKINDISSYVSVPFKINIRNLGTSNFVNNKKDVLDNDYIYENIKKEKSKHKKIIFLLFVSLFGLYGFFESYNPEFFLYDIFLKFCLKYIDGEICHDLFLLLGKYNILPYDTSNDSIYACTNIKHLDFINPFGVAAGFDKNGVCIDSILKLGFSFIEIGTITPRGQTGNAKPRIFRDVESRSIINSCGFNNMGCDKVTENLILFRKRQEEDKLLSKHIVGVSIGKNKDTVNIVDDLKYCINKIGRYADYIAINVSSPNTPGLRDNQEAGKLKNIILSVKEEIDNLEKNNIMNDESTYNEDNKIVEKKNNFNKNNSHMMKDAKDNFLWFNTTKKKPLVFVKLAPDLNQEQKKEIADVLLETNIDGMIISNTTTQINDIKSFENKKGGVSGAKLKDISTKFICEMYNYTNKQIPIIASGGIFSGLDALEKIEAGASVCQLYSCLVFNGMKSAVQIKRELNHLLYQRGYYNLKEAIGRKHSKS
Assay: P. falciparum DHODH enzymatic assay
Conditions: biochemical assay

`Cc1ccc(-n2nc(OC(C)C)c(Oc3c(F)cccc3F)c2C)nn1` [22a, 3-(4-(2,6-Difluorophenoxy)-3-isopropoxy-5-methyl-1H-pyrazol-1-yl)-6-methylpyridazine] was tested, and the “inhibition of recombinant P. falciparum DHODH” value was “completely devoid of effect”.
With `Cc1c(Oc2c(F)cccc2F)c(OC(C)C)nn1-c1ccc(C2CC2)nn1` [compound 10q, 3-Cyclopropyl-6-(4-(2,6-difluorophenoxy)-3-isopropoxy-5-methyl-1H-pyrazol-1-yl)pyridazine] the “inhibition of recombinant P. falciparum DHODH” value was “completely devoid of effect”.

From article PMC4516315 (Journal of Medicinal Chemistry, 2015)
